In patent publication US8946234B2, “Halogen-substituted compounds” (Bayer CropScience AG, priority 2008, dated 2015):

How the values were obtained:
Phaedon cochleariae = assay: Phaedon test (PHAECO spray treatment); assay type: in vivo; conditions: foliar, application rate 500 g/ha, sprayed Chinese cabbage leaf discs, mustard beetle larvae, 100% = all larvae killed, read-out: effect in %
Experimental: [table] To produce a suitable active ingredient preparation, part by weight of active ingredient is mixed with the stated amounts of solvents and emulsifier, and the concentrate is diluted to the desired concentration with emulsifier-containing water. Discs of Chinese cabbage leaves (Brassica pekinensis) are sprayed with an active ingredient preparation of the desired concentration and, after drying, populated with larvae of the mustard beetle (Phaedon cochleariae). After the desired time, the effect in % is determined. Here, 100% means that all of the beetle larvae have been killed; 0% means that no beetle larvae have been killed.

[1] = logP by HPLC on a C18 phase inversion column, EEC Directive 79/831 Annex V.A8, method a) (Agilent 1100, 10-95% acetonitrile in 4.25 min); assay type: physicochemical; conditions: read-out: logP
Procedure, shortened: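 Following EEC Directive 79/831 Annex V.A8, logP is obtained from retention on a 1.8 micron C18 column (50×4.6 mm) at 55 °C and 2.0 ml/min. Elution ran 10→95% acetonitrile (0.1% formic acid) against water (0.09% formic acid) in 4.25 min, held 1.25 min; mass detection used.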

[2] = logP by HPLC on a C18 phase inversion column, EEC Directive 79/831 Annex V.A8, method b) (HP1100, 5-95% acetonitrile in 1.70 min); assay type: physicochemical; conditions: HPLC phase inversion (reversed-phase) C18 column; HPLC method b), eluent acetonitrile/water with formic acid
Experimental: ^b) Note regarding the determination of the log P values and mass detection: The log P values given were determined in accordance with EEC Directive 79/831 Annex V.A8 by HPLC (High Performance Liquid Chromatography) on a phase inversion column (C18). HP1100; 50*4.6 Zorbax Eclipse Plus C18 1.8 micron; eluent A: acetonitrile (0.1% formic acid); eluent B: water (0.08% formic acid); linear gradient from 5% acetonitrile to 95% acetonitrile in 1.70 min, then 95% acetonitrile for a further 1.00 min; oven temperature 55° C.; flow: 2.0 ml/min. The mass detection is carried out via the mass detector Micromass ZQ2000 from Waters.

[3] = HPLC phase inversion (reversed-phase) C18 column, HPLC method a), eluent acetonitrile/water with formic acid
[4] = HPLC phase inversion (reversed-phase) C18 column, HPLC, method a)

Compound	pest or weed control at 500 g/ha (Phaedon cochleariae)	chromatographic logP [1, 3]	chromatographic logP [1, 4]	chromatographic logP [2]
O=C(NC1CC1)c1cc(NC(=O)c2cnc(Cl)nc2C(F)(F)F)ccc1Cl [Ib-1, 2-chloro-N-[4-chloro-3-(cyclopropylcarbamoyl)phenyl]-4-(trifluoromethyl)pyrimidine-5-carboxamide]	≥ 80%	2.36	–	–
O=C(NC1CC1)c1cc(NC(=O)c2cnc(OCC(F)(F)F)nc2C(F)(F)F)ccc1Cl [Ib-2]	≥ 80%	2.76	–	–
O=C(NC1CC1)c1cc(NC(=O)c2cnc(C(F)(F)C(F)(F)F)nc2C(F)F)ccc1Cl [Ib-27, N-[4-Chloro-3-(cyclopropylcarbamoyl)phenyl]-4-(difluoromethyl)-2-(pentafluoroethyl)pyrimidine-5-carboxamide]	≥ 80%	2.92	–	–
O=C(NC1CC1)c1cc(NC(=O)c2cnc(OCC(F)(F)F)cc2C(F)(F)F)ccc1Cl [Ij-1, N-[4-Chloro-3-(cyclopropylcarbamoyl)phenyl]-6-(2,2,2-trifluoroethoxy)-4-(trifluoromethyl)pyridine-3-carboxamide]	≥ 80%	3.02	–	–
Cn1nc(C(F)(F)C(F)(F)F)c(C(F)(F)F)c1C(=O)Nc1ccc(Cl)c(C(=O)NC2CC2)c1 [Ik-1, N-[4-Chloro-3-(cyclopropylcarbamoyl)phenyl]-1-methyl-3-(pentafluoroethyl)-4-(trifluoromethyl)-1H-pyrazole-5-carboxamide]	≥ 80%	3.34	3.34	–
C#CCNC(=O)c1cc(NC(=O)c2c(C(F)(F)F)c(C(F)(F)C(F)(F)F)nn2C)ccc1Cl [Ik-3, N-[4-Chloro-3-(prop-2-yn-1-ylcarbamoyl)phenyl]-1-methyl-3-(pentafluoroethyl)-4-(trifluoromethyl)-1H-pyrazole-5-carboxamide]	≥ 80%	–	–	3.11
Cn1nc(C(F)(F)C(F)(F)F)c(I)c1C(=O)Nc1ccc(Cl)c(C(=O)NC2CC2)c1 [Ik-4, N-[4-Chloro-3-(cyclopropylcarbamoyl)phenyl]-1-methyl-3-(pentafluoroethyl)-4-iodo-1H-pyrazole-5-carboxamide]	≥ 80%	3.16	3.15	–
C=Cc1c(C(F)(F)C(F)(F)F)nn(C)c1C(=O)Nc1ccc(Cl)c(C(=O)NC2CC2)c1 [Ik-5, N-[4-Chloro-3-(cyclopropylcarbamoyl)phenyl]-1-methyl-3-(pentafluoroethyl)-4-ethenyl-1H-pyrazol-5-carboxamide]	≥ 80%	3.11	3.11	–
